Reference: ChEMBL document CHEMBL2086377, “Synthesis and functionalization of cyclic sulfonimidamides: a novel chiral heterocyclic carboxylic Acid bioisostere” (ACS Med Chem Lett, 2012)

What was measured:
[1] = Dissociation constant, pKa of the compound at 10 mM by pressure-assisted capillary electrophoretic/mass spectrometric analysis; format: physicochemical
[2] = Apparent permeability of the compound from apical to basal side of human Caco2 cells at 1 uM after 60 mins by LCMS analysis; format: ADME, cell-based; settings: Caco-2
[3] = Octanol-buffer partition coefficient, log D of the compound after 30 mins by shake flask method at pH 7.4
[4] = in vitro; settings: human, Caco-2
Description: Efflux ratio of apparent permeability of the compound from basal to apical to apical to basal side of human Caco2 cells at 1 uM after 60 mins by LCMS analysis

Compound | pKa at 10000 µM [1] | Papp A→B at 1 h, 1 µM [2] | logD at 0.5 h [3] | efflux ratio at 1 h, 1 µM [4]
C[C@@H]1N[S@](=O)(c2cccc(-c3cccc(C#N)c3)c2)=NC1=O | 5.8 | 2.3 ×10⁻⁶ cm/s |  | 
Cc1ccc(-c2cccc([S@]3(=O)=NC(=O)[C@H](C)N3)c2)cc1 | 6 | 66 ×10⁻⁶ cm/s |  | 
Cc1ccc(-c2cccc(C(=O)O)c2)cc1 | 4 |  |  | 
N#Cc1cccc(-c2cccc(C(=O)O)c2)c1 |  |  | 0.3 | 

Continued, values first:

pKa at 10000 µM [1] | Papp A→B at 1 h, 1 µM [2] | logD at 0.5 h [3] | efflux ratio at 1 h, 1 µM [4] | Compound
4.1 |  | 1.3 |  | Cc1ccc(-c2cccc(-c3nn[nH]n3)c2)cc1
4 | < 0.3 ×10⁻⁶ cm/s | 0.7 | 255 | N#Cc1cccc(-c2cccc(-c3nn[nH]n3)c2)c1
